Test results published in article PMC4122966, “Novel VCP modulators mitigate major pathologies of rd10, a mouse model of retinitis pigmentosa” (Scientific Reports, 2014).

Columns and labels:
cellular VCP functions = assay: immunoblot of ubiquitinated proteins, CHOP (ER stress) and LC3 (autophagy) in cultured cells; type: cell-based
Description: (§1) Figure 1 Structures and characterization of KUSs, novel VCP modulators. (a) Structures and IC50 values of KUS11, KUS31, KUS69, KUS94, KUS121, and KUS187. […] (b) ATPase activity assays of recombinant human […], comparing KUSs and DBeQ. (c) Immunoblot analysis of ubiquitinated proteins, an ER stress marker (CHOP), and an autophagy indicator (LC3), comparing KUSs and DBeQ. As a control, MG132, a proteasome inhibitor, was used for the analysis. Actin served as a loading control. Complete scans of the different blots are presented in Supplementary Fig. 7. (d) Comparison of KUSs and DBeQ for cell death-inducing activities. HeLa cells were treated with 50 μM DBeQ or KUSs for 24 hours. […]

HeLa cells [1] = assay: cell death-inducing activity; type: cell-based; details: 50 μM, 24 hours
Description: as §1

[2] = test system: essentially all tested cultured cells; assay: cellular toxicity on cultured cells; type: cell-based; details: up to 50 μM
HeLa cells [3] = assay: protection from cell death in low glucose medium (WST); type: cell-based; details: low glucose 0.2 g/l, 5, 10, 20, and 50 μM, 41 hours
Experimental: Figure 2 Prevention of cell death and ER stress by KUSs. (a) Photographs of HeLa cells, cultured with DMSO (DMSO) or KUSs (KUS94, KUS121, and KUS187, 20 μM each) for 41 hours in low glucose (0.2 g/l) medium. Scale bar, 100 μm. (b–e) WST (water-soluble tetrazolium salts) values reflecting relative live cell numbers are shown, as optical density (OD) at 450 nm. Error bars indicate SD. (b) WST values of HeLa cells, cultured in low glucose (0.2 g/l) with DMSO (control) or KUSs (50 μM for KUS121; 20 μM for KUS69, KUS94, and KUS187, n = 3) for 41 hours. (c) Cell viability, indicated by WST values of HeLa cells, cultured with tunicamycin (Tm) (0.2 μg/ml) for 41 hours with KUSs (20 μM each, n = 3). […]
HeLa, HEK293, and PC12 cells were cultured in Dulbecco's modified Eagle's medium (DMEM) with 10% fetal bovine serum. […] Viability of cultured cells was measured by formazan production with an ARVO multilabel counter (Wallac), using WST (water soluble tetrazolium salts)-8 reagent (Cell count reagent SF, Nacalai Tesque, Kyoto, Japan). ATP in cultured cells was measured by luciferase activities with an ARVO multilabel counter, using ATP assay reagent for cells (Toyo B-net, Tokyo, Japan). Acetyl-CoA was measured using a PicoProbe Acetyl CoA assay kit (BioVision, CA, USA) with a Spectra Max multilabel counter (Molecular Devices, CA, USA).

C57BL/6 wild-type mice = assay: electroretinogram of adult wild-type mice administered KUS; type: in vivo, mouse
Experimental: Electroretinogram recording was performed to assess the visual function of rd10 mice at ages of 21, 25, 29, and 33 days. Mice were dark-adapted overnight before anesthetization. Electroretinograms were recorded using a gold loop corneal electrode with a light-emitting diode (Mayo Corp., Inazawa, Japan). A reference electrode was placed in the mouth and a ground electrode was inserted to the anus. Stimuli were produced with a light emitting diode stimulator (Mayo Corp.). The electroretinogram response signals were amplified, digitized at 10 kHz with a band-pass filter of 0.3 to 500 Hz, and analyzed (PowerLab 2/25; AD instruments, New South Wales, Australia). The a- and b-wave amplitudes and a-wave latency of the mixed cone and rod response (ISCEV (International Society for Clinical Electrophysiology of Vision) standard; scotopic 3.0)[34] were analyzed.
Supplementary Figure 6 (a) Time-dependent changes of b-wave amplitude in dark-adapted electroretinograms in non-treated C57BL/6 wild-type mice. b-wave […]
= 0.004. (b, c) a-wave (b) and b-wave (c) amplitude of adult C57BL/6 wild-type mice administered saline or KUS121 for 7 days. […]
amplitudes of a-and b-waves between mice administered saline or KUS121 (a-wave […]
92.9 vs. 420.8 ± 52.6, P = 0.86, t-test). Error bars indicate SD.
Lane 1, 1µM MG132; lane 2, control; lane 3, 5µM DBeQ; lane 4, 10µM DBeQ; lane 5, 15µM DBeQ; lane 6: KUS11; lane 7, KUS31; lane 8, KUS69; lane 9, KUS 94; lane 10, […]
Lane 1, Tm(-); lane 2, control; lane 3, KUS69; lane 4, KUS94; lane 5, KUS121; lane 6, KUS187; lane 7, Tm(-); lane 8, control; lane 9, 0.1mM ATP; lane 10, 0.3mM ATP; lane 11, 1mM ATP; lane 12, 3mM methylpyruvate; lane 13, 10mM methylpyruvate.

Cc1cc(F)ccc1-c1ccc(/N=N/c2cc(S(=O)(=O)O)c3ccccc3c2N)cn1 [KUS121]
induction of accumulation of ubiquitinated proteins, ER stress (CHOP), autophagy (LC3) (cellular VCP functions): did not induce any of these phenotypes | induction of cell death (HeLa cells [1]): did not induce any of these phenotypes | apparent cellular toxicity [2]: did not manifest any apparent cellular toxicity | dose dependence of protective effect (HeLa cells [3]): dose-dependent | a-wave amplitude (C57BL/6 wild-type mice; adult C57BL/6 wild-type mice, KUS121 for 7 days, saline 203.5 ± 41.6, P = 0.56, in µV (unit assumed)): 195.8 ± 30.2 | b-wave amplitude (C57BL/6 wild-type mice; adult C57BL/6 wild-type mice, KUS121 for 7 days, saline 425.8 ± 92.9, P = 0.86, in µV (unit assumed)): 420.8 ± 52.6 | change in the amplitude of a- and b-waves vs saline (C57BL/6 wild-type mice; adult wild-type mice): no significant differences
